Results as given in PMC6814236, “Monitoring and characterizing soluble and membrane-bound ectonucleotidases CD73 and CD39” (PLoS ONE, 2019).
“Also recorded” adds a separate entry of the source.

Experiments:
[1] = system: T1, cN-II (Human cytosolic 5'-Nucleotidase); experiment: Enzyme activity of purified cytosolic cN-II (AMP-Glo assay); type: biochemical; conditions: cN-II 0.6 mU/Rx, 10μM AMP, 37°C for 30 min
T1 construct: purchased NovoCIB SAS
Protocol: • 2 Determination of enzyme activity of purified cytosolic cN-II. Activity of purified cN-II (Human cytosolic 5'-Nucleotidase) was determined using 25μl reaction buffer (50mM HEPES, pH 7.0, 100mM KCl, 20mM MgCl2, 5mM DTT, 2.5mM dATP, and 0.1mg/ml BSA) containing enzyme and AMP substrate at 10μM (96-well format). Reaction continued at 37°C for 60 minutes or for a certain time period and terminated by the addition of equal volume (25μl) of AMP-Glo™ Reagent I. Reactions were mixed well and incubated for additional 30 min at 23°C. This was followed by the addition of 50 μl of AMP Detection Solution (10μl of AMP-Glo™ Reagent II per ml of Kinase-Glo® One Solution) and incubated for additional 60 min at 23°C before reading luminescence. • 3 Determination of enzyme activity of purified CD39. Activity of CD39 was determined using reaction buffer that contains 25mM Tris, pH 7.5, 5mM CaCl2, and 0.1mg/ml BSA), with 1μM to 5μM ATP or ADP as substrate, respectively. When ATP is used as a substrate, an equal volume of Kinase-Glo® One Solution was added to CD39 reactions and incubated for 15 min before reading luminescence using a luminometer. […] Reactions were mixed well and incubated for 60min before reading luminescence using luminometer. […]

[2] = molecular target: T2, Recombinant Human 5'-Nucleotidase/CD73 (Homo sapiens, UniProt P21589); parameters: method as in PMID 18302942, PMID 24144488; conditions: reported by others; ref [25], [26]; cited from earlier work
T2 construct: purchased R&D Systems
T2 sequence (P21589 27-574): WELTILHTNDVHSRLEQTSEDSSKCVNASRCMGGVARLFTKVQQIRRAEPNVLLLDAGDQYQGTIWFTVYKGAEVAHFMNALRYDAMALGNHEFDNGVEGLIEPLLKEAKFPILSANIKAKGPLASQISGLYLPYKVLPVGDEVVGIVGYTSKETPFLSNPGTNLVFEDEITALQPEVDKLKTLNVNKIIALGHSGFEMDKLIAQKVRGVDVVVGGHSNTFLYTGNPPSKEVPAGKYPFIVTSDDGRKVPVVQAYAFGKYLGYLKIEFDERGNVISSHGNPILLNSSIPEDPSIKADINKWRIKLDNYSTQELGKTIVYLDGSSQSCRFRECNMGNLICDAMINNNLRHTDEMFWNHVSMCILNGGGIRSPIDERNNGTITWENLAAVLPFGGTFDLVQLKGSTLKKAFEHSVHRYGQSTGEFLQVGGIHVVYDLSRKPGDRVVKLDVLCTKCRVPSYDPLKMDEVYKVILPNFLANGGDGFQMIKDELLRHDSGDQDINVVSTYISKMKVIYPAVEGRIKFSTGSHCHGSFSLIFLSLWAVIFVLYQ

luciferase = experiment: Control test of the compound on luciferase activity; type: biochemical; conditions: control for assay interference
Source text: Although we have not tested this assay using orthogonal assay, very recent publication used this technology (AMP Glo) to develop what they called “an exceptionally potent inhibitor of human […]” (Bowman CE, da Silva RG, Pham A, Young SW. An exceptionally potent inhibitor of human CD73. Biochemistry 2019; 58: 3331-3334) and compared their kinetic data using inorganic phosphate release and the data confirmed the validity of bioluminescence approach. Furthermore, since we launched ADP Glo for kinases and ATPases, it has been cited in over 1500 citations as well as numerus patents, and it is the main assay used for large scale screening for inhibitors in HTS laboratories. Besides, we have not found potent inhibitors of this assay other than few luciferase inhibitors which would be excluded when controls were run simultaneously. Protein concentration used in western blots for CD39 or CD39 in cells should be shown using either a housekeeping control, or the total protein concentration shown if other methods were used. Alternatively, a FACS based assay could be performed to show expression of cell surface […] or CD39.

SMILES	inhibition of cN-II [1]	IC50 [2] [nM]	effect on luciferase activity (luciferase)
Nc1ncnc2c1ncn2[C@@H]1O[C@H](COP(=O)(O)CP(=O)(O)O)[C@@H](O)[C@H]1O [AMP-CP, Adenosine 5'-(α, β-methylene) diphosphate]	minimal or no inhibition; also recorded: no inhibition	236	
[Na+].[Na+].[Na+].[Na+].[Na+].[Na+].[O]=[W](=[O])([O-])[O-].[O]=[W](=[O])([O-])[O-].[O]=[W](=[O])([O-])[O-].[O]=[W](=[O])=[O].[O]=[W](=[O])=[O].[O]=[W](=[O])=[O].[O]=[W](=[O])=[O].[O]=[W](=[O])=[O].[O]=[W](=[O])=[O].[O]=[W](=[O])=[O].[O]=[W](=[O])=[O].[O]=[W](=[O])=[O] [POM1, Sodium metatungstate]			no inhibitory effect
